The results in this text go back to patent US10420845B2, “Taggable heteroaromatic drugs and conjugates thereof” (Ramot at Tel-Aviv University Ltd., priority 2015, dated 2019).

Structures are written as SMILES.

Series [1] has as its system U-87 human primary glioblastoma cell. The series can be described thus: tumor cell-growth inhibition assay, U-87 cells. It is filed as cell-based. Particulars: U-87 MG. The method, then: (§1) In order to find out whether the new derivatives retain their potency, the cytotoxicity of the CPT-, TMZ- and bosutinib-ketone analogues was evaluated in comparison to that of the parent drugs.
To determine the usefulness of the drug analogues produced harboring a ketone for controlled release and bioconjugation. CPT-ketone 2a was selected for further evaluation. As presented in Scheme 1, a ketone functional group can be masked either through an acid-labile hydrazone linkage or with a photo-labile ketal protecting group. CPT-ketone 2a was masked with a photo-labile protecting group (Gravel et al., 1983; Klan et al., 2013) to produce ketal derivative 6 (FIG. 5). This derivative can be considered as prodrug form of CPT-ketone 2a. […] The cytotoxicity of prodrug 6 was then evaluated in a standard cell-growth inhibition assay before and after irradiation with UV light (FIG. 5B). […] In this example, the prodrug was activated with UV light; however, there are analogues protecting groups that can be removed through a visible or near infrared light (Lu et al., 2003).

The next series has as its system HiFR KB cells. The series can be described thus: proliferation (MTT) assay on KB HiFR cells. It is filed as cell-based. Particulars: human. How it is done: Proliferation Assay KB HiFR were seeded in 96 well/plates, 2×10^3 cell/100 μL in folate depleted RPMI+10% FBS. After 24 h incubation at 37° C., 5% CO2, 100 μL of serial dilutions (200-0.00002 μM CPT equivalent concentrations) of CPT and CPT-derivatives were added to the wells (final concentration 100-0.00001 μM). In the short exposure (pulse and chase) experiment the treatments were removed after 10 min incubation at 37° C., 5% CO2, the cells were washed once with PBS and incubated with fresh folate depleted RPMI+10% FBS for 72 h. In the long exposure experiment, the cells were incubated for 72 h with the treatment. After 72 h incubation, 30 μL of […] of MTT (3-(4,5-dimethylthiazol-2-yl)-2,5-diphenyltetrazolium bromide) in PBS were added to each well, and incubated for 5 h. After incubation the medium was removed and the cells lysed in 200 μL DMSO and kept under gentle stirring protected from light for 20 min. Absorbance was measured at 560 nm and survival plotted as percentage of untreated control.

For a further series, the system named is SF-295. Put plainly: tumor cell-growth inhibition assay, SF-295 cells. It is filed as cell-based. Particulars: Homo sapiens; cell line SF-295. How it is done: as §1
A further series concerns U-251. Put plainly: tumor cell-growth inhibition assay, U-251 cells. The format is cell-based. Particulars: Homo sapiens; cell line U-251. The method, then: as §1
Another series relates to tumorous cell-lines. The series can be described thus: tumor cell-growth inhibition assays of ketone derivatives vs native drugs, several tumorous cell-lines. It is filed as cell-based. Particulars: repeated with several tumorous cell-lines. How it is done: as §1
The assays were repeated with several tumorous cell-lines and the obtained results were similar (FIGS. 3-4).

A short description of series [2]: release of CPT-ketone 2a from prodrug 6 with and without UV irradiation. It is filed as physicochemical.

For orientation: IC50 means the concentration that inhibits the measured activity by half. On to `CCC1(O)C(=O)OCc2c1cc1n(c2=O)Cc2c-1nc1ccccc1c2C(F)(F)CCCC(C)=O` (stereo not shown) [CPT-ketone], for which the IC50 in series [1] (cell line U-87) amounted to 10 nM; in series [1] (light or radiation study, comparator in prodrug 6 irradiation experiment) it was 5 nM. For the same compound, the “IC50 comparison, cytotoxicity on HiFR KB cells” value with HiFR KB cells is recorded as “relatively similar IC50 values”.

On to `COc1cc(Nc2c(C#N)c(C(F)(F)CCCC(C)=O)nc3cc(OCCCN4CCN(C)CC4)c(OC)cc23)c(Cl)cc1Cl` [Bosutinib-ketone], for which, in the series on SF-295, half-maximal inhibition (IC50) required 17000 nM.

Regarding `CC(=O)CCCC(F)(F)c1nc(C(N)=O)c2nnn(C)c(=O)n12` [TMZ-ketone], in the series on U-251, the IC50 was 35000 nM.

With `Cn1nnc2c(C(N)=O)ncn2c1=O` [TMZ, temozolomide, reference compound], in the series with U-251, 36000 nM corresponded to half-maximal inhibition (IC50).

For the compound `COc1cc(Nc2c(C#N)cnc3cc(OCCCN4CCN(C)CC4)c(OC)cc23)c(Cl)cc1Cl` [Bosutinib, bosutinib, reference compound], in the series with SF-295, inhibition was half-maximal at 17000 nM (IC50).

`CC[C@@]1(O)C(=O)OCc2c1cc1n(c2=O)Cc2cc3ccccc3nc2-1` [CPT, camptothecin, reference compound] registered a half-inhibitory concentration (IC50) in series [1] (cell line U-87) of 7 nM.

With `CC(=O)CCCC(F)(F)c1nc2nc(N)nc(N)c2nc1CN(C)c1ccc(C(=O)NC(CCC(=O)O)C(=O)O)cc1` (stereo not shown) [MTX-ketone], the “cytotoxicity of ketone analogue compared with native drug” value with tumorous cell-lines is recorded as “completely lost its cytotoxicity”.

As to `CCC1(O)C(=O)OCc2c1cc1n(c2=O)Cc2c-1nc1ccccc1c2C(F)(F)CCCC1(C)OCC(c2cc(OC)c(OC)cc2[N+](=O)[O-])O1` (stereo not shown) [Compound 6], the IC50 in series [1] (light or radiation study, prodrug after irradiation with UV light) was 10 nM; in series [1] (light or radiation study, prodrug before irradiation with UV light) it was 350 nM. Further, the “release of CPT-ketone 2a” value in series [2] (irradiation with UV light over 2 hours under physiological conditions) is “resulted in release of CPT-ketone 2a”; in series [2] (without irradiation), “No release was observed”.
